{
  "source": "patent US8623900B2",
  "about": "“Amino alcohol derivatives and their therapeutic activities” (Flamma S.p.A., priority 2009, dated 2014)",
  "key": {"rat": {"system": "rat", "assay": "preliminary toxicological study in the rat", "format": "in vivo"}, "[1]": {"assay": "carbonyl-quenching activity towards HNE in vitro (residual HNE by reverse-phase chromatography)", "format": "biochemical", "details": "HNE 50 μM, compound 1 mM, phosphate buffer 10 mM, pH 7.4, 37° C.; percentage of HNE reacted after one, two and three hours", "protocol": "The pharmacological activity of the compounds according to the invention was determined in vitro by evaluating their carbonyl-quenching activity towards 4-hydroxy nonenal ([…]), which is known for its involvement in numerous disorders.\nThe activity was evaluated one, two and three hours after incubation, determining the residual HNE content by reverse-phase chromatography as previously described by Aldini G. et al. [Biochem Biophys Res Commun. 2002 Nov. 15; 298(5):699-706]. The carbonyl-quenching activity is evaluated on the basis of the percentage of HNE reacted, compared with the HNE content in the absence of the molecule to be tested."}},
  "data": [
    {"smiles": "NCCC(=O)N[C@H](CO)Cc1cnc[nH]1", "note": "[3-Amino-N-[(1S)-2-hydroxy-1-(1H-imidazol-5-yl-methyl)-ethyl]propanamide]", "values": [
      {"measurement": "toxic effects", "setting": "rat; IV, 3 consecutive doses 3, 10 and 30 mg/kg", "value": "no toxic effects were observed"},
      {"measurement": "toxic effects", "setting": "rat; intraperitoneal, single dose 100 mg/kg", "value": "no toxic effects were observed"},
      {"measurement": "toxic effects", "setting": "rat; per os (gavage), 100 mg/kg/day for 7 days", "value": "no toxic effects were observed"},
      {"measurement": "carbonyl-quenching activity relative to β-alanyl histidine (standard substance)", "setting": "[1]", "value": 1.66, "unit": "times"}
    ]}
  ]
}
